Data: US7968577B2 (Bristol-Myers Squibb Company, priority 2006, dated 2011)

Test system: AP-1 induced transcriptional activity
Assay: Cellular Transrepressional Assay: AP-1 luciferase reporter in PMA-activated A549 cells
Assay type: cell-based
Conditions: Homo sapiens, A549, 7 h, maximum inhibition, Cellular Transrepression Assay; read-out: AP-1 Max % inh (Cellular Transrepression Assay)
Experimental: Cellular Transrepressional Assay
To measure the ability of test molecules to inhibit AP-1 induced transcriptional activity we utilized an A549 cell which was stably transfected with a plasmid containing 7× AP-1 DNA binding sites (pAP-1-Luc plasmid, Stratagene Co. La Jolla, Calif.) followed by the gene for luciferase. Cells were activated with 10 ng/ml of […] (PMA) plus or minus test molecules for 7 hours. After 7 hours a luciferase reagent was added to measure luciferase enzymatic activity in the cell. After a 10 minute incubation of luciferase reagent with cells, luminescence was measured in a TopCount luminescence counter. Repression of AP-1 activity was calculated as the percentage decrease in the signal induced by PMA alone. Test molecules were analyzed in the concentration range from 0.1 nM to 40 μM. EC50s were determined by using standard curve fitting methods such as Excel fit (Microsoft Co.).

In order of falling Emax:
1. Cc1ccc(-c2csc(NC(=O)C(C)(C)C(c3ccccc3)c3ccccc3)n2)c2ccccc12 [Example 164, 2,2-dimethyl-N-(4-(4-methyl-1-naphthalenyl)-1,3-thiazol-2-yl)-3,3-diphenylpropanamide]  75.2%
2. COc1ccc([C@H](c2ccccc2)C(C)(C)C(=O)Nc2nc(Cc3ccc(-c4ccncc4)cc3)cs2)cc1 (stereo in doubt) [Example 291, 2,2-dimethyl-3-(4-(methyloxy)phenyl)-3-phenyl-N-(4-((4-(4-pyridinyl)phenyl)methyl)-1,3-thiazol-2-yl)propanamide]  74.3%
3. COc1ccc([C@@H](c2ccccc2)C(C)(C)C(=O)Nc2nc(Cc3ccc(-c4ccncc4)cc3)cs2)cc1 (stereo in doubt) [Example 290, 2,2-dimethyl-3-(4-(methyloxy)phenyl)-3-phenyl-N-(4-((4-(4-pyridinyl)phenyl)methyl)-1,3-thiazol-2-yl)propanamide]  72.6%
4. CC(C)(C(=O)Nc1nc(-c2ccc(F)c3ccccc23)cs1)C(c1ccccc1)c1ccccc1 [Example 183, N-(4-(4-fluoro-1-naphthalenyl)-1,3-thiazol-2-yl)-2,2-dimethyl-3,3-diphenylpropanamide]  65.3%
5. COc1ccc2c(-c3csc(NC(=O)C(C)(C)C(c4ccccc4)c4ccccc4)n3)cccc2c1 [Example 166, 2,2-dimethyl-N-(4-(6-(methyloxy)-1-naphthalenyl)-1,3-thiazol-2-yl)-3,3-diphenylpropanamide]  62.3%
6. CC(C)(C(=O)Nc1nc(-c2ccnc3ccccc23)cs1)C(c1ccccc1)c1ccccc1 [Example 184, 2,2-dimethyl-3,3-diphenyl-N-(4-(4-quinolinyl)-1,3-thiazol-2-yl)propanamide]  57.5%
7. CC(C)(C(=O)Nc1nncs1)C(c1ccc(N2CCOCC2)cc1)c1cccc(F)c1 (single isomer, unassigned) [Example 255, 3-(3-fluroophenyl)-2,2-dimethyl-3-(4-(4-morpholinyl)phenyl)-N-1,3,4-thiadiazol-2-ylpropanamide]  43%
8. CC(C)(C(=O)Nc1nccs1)[C@H](c1ccccc1)c1ccc(N2CCOCC2)cc1 (stereo in doubt) [Example 258, 2,2-dimethyl-3-(4-(4-morpholinyl)phenyl)-3-phenyl-N-1,3-thiazol-2-ylpropanamide]  42.7%
9. COc1ccc(C(c2ccccc2)C(C)(C)C(=O)Nc2nc(-c3ccccc3)cs2)cc1 (stereo not shown) [Example 107, 2,2-dimethyl-3-(4-(methyloxy)phenyl)-3-phenyl-N-(4-phenyl-1,3-thiaozl-2-yl)propanamide]  38.4%
10. COc1cccc(C(c2ccccc2)C(C)(C)C(=O)Nc2nc(C(C)(C)C)cs2)c1 (stereo not shown) [Example 96, N-(4-(1,1-dimethylethyl)-1,3-thiazol-2-yl)-2,2-dimethyl-3-(3-(methyloxy)phenyl)-3-phenylpropanamide]  37.1%
11. CC(C)(C(=O)Nc1nccs1)C(c1ccccc1)c1cccc(O)c1 (stereo not shown) [Example 197, 3-(3-hydroxyphenyl)-2,2-dimethyl-3-phenyl-N-1,3-thiazol-2-ylpropanamide]  36.3%
12. COc1cccc(C(c2ccccc2)C(C)(C)C(=O)Nc2nc(-c3ccccc3)cs2)c1 (stereo not shown) [Example 95, 2,2-dimethyl-3-(3-(methyloxy)phenyl)-3-phenyl-N-(4-phenyl-1,3-thiaozl-2-yl)propanamide]  36.2%
13. COc1ccc(C(c2ccccc2)C(C)(C)C(=O)Nc2nc(C)c(C)s2)cc1 (stereo not shown) [Example 106, N-(4,5-dimethyl-1,3-thiazol-2-yl)-2,2-dimethyl-3-(4-(methyloxy)phenyl)-3-phenylpropanamide]  35.9%
14. COc1cccc(C(c2ccccc2)C(C)(C)C(=O)Nc2nc(C)c(C)s2)c1 (stereo not shown) [Example 94, N-(4,5-dimethyl-1,3-thiazol-2-yl)-2,2-dimethyl-3-(3-(methyloxy)phenyl)-3-phenylpropanamide]  35.4%
15. COc1ccccc1C(c1ccccc1)C(C)(C)C(=O)Nc1nc(-c2ccccc2)cs1 (stereo not shown) [Example 84, 2,2-dimethyl-3-(2-(methyloxy)phenyl)-3-phenyl-N-(4-phenyl-1,3-thiazol-2-yl)propanamide]  30.8%
16. CCOC(=O)c1sc(NC(=O)C(C)(C)C(c2ccccc2)c2cccc(OC)c2)nc1C (stereo not shown) [Example 100, ethyl 2-((2,2-dimethyl-3-(3-(methyloxy)phenyl)-3-phenylpropanoyl)amino)-4-methyl-1,3-thiazole-5-carboxylate]  30%
17. CC(C)(c1ccccc1)c1csc(NC(=O)C(C)(C)C(c2ccccc2)c2ccccc2)n1 [Example 181, 2,2-dimethyl-N-(4-(1-methyl-1-phenylethyl)-1,3-thiazol-2-yl)-3,3-diphenylpropanamide]  28.9%
18. COc1ccc(C(c2ccc(OC)cc2)C(C)(C)C(=O)Nc2nc(C(C)(C)C)cs2)cc1 [Example 74, N-(4-(1,1-dimethylethyl)-1,3-thiazol-2-yl)-2,2-dimethyl-3,3-bis(4-(methyloxy)phenyl)propanamide]  28.1%
19. COc1cccc(C(c2ccccc2)C(C)(C)C(=O)Nc2ncc(C)s2)c1 (stereo not shown) [Example 93, 2,2-dimethyl-3-(3-(methyloxy)phenyl)-N-(5-methyl-1,3-thiazol-2-yl)-3-phenylpropanamide]  28.1%
20. CC(C)(C(=O)Nc1nccs1)C(c1ccc(N2CCOCC2)cc1)c1cccc(F)c1 (single isomer, unassigned) [Example 253, 3-(3-fluorophenyl)-2,2-dimethyl-3-(4-(4-morpholinyl)phenyl)-N-1,3-thiazol-2-ylpropanamide]  27.9%
21. COc1ccc(C(c2ccccc2)C(C)(C)C(=O)Nc2nc(C)cs2)cc1 (stereo not shown) [Example 104, 2,2-dimethyl-3-(4-(methyloxy)phenyl)-N-(4-methyl-1,3-thiazol-2-yl)-3-phenylpropanamide]  27.3%
22. Cc1cccc(-c2csc(NC(=O)C(C)(C)C(c3ccccc3)c3ccccc3)n2)c1 [Example 170, 2,2-dimethyl-N-(4-(3-methylphenyl)-1,3-thiazol-2-yl)-3,3-diphenylpropanamide]  27%
23. COc1cccc(C(c2ccccc2)C(C)(C)C(=O)Nc2nc3ccccc3s2)c1 (stereo not shown) [Example 101, N-1,3-benzothiazol-2-yl-2,2-dimethyl-3-(3-(methyloxy)phenyl)-3-phenylpropanamide]  26.9%
24. COc1cccc(C(c2ccccc2)C(C)(C)C(=O)Nc2nc(CCc3ccccc3)cs2)c1 (stereo not shown) [Example 97, 2,2-dimethyl-3-(3-(methyloxy)phenyl)-3-phenyl-N-(4-(2-phenylethyl)-,3-thiaozl-2-yl)propanamide]  26.5%
25. COc1ccccc1C(c1ccccc1)C(C)(C)C(=O)Nc1ncc(C)s1 (stereo not shown) [Example 82, 2,2-dimethyl-3-(2-(methyloxy)phenyl)-N-(5-methyl-1,3-thiazol-2-yl)-3-phenylpropanamide]  25.9%
26. CCOC(=O)c1sc(NC(=O)C(C)(C)C(c2ccc(O)cc2)c2ccc(O)cc2)nc1C [Example 194, ethyl 2-((3,3-bis(4-hydroxyphenyl)-2,2-dimethylpropanoyl)amino)-4-methyl-1,3-thiazole-5-carboxylate]  25.4%
27. COc1cccc(C(c2ccccc2)C(C)(C)C(=O)Nc2nccs2)c1 (stereo not shown) [Example 91, 2,2-dimethyl-3-(3-(methyloxy)phenyl)-3-phenyl-N-1,3-thiazol-2-ylpropanamide]  23.2%
28. COc1ccccc1C(c1ccccc1)C(C)(C)C(=O)Nc1nc(C)cs1 (stereo not shown) [Example 81, 2,2-dimethyl-3-(2-(methyloxy)phenyl)-N-(4-methyl-1,3-thiazol-2-yl)-3-phenylpropanamide]  23.1%
29. CC(C)(C(=O)Nc1nc(-c2ccc(F)cc2)cs1)C(c1ccccc1)c1ccccc1 [Example 168, N-(4-(4-fluorophenyl)-1,3-thiazol-2-yl)-2,2-dimethyl-3,3-diphenylpropanamide]  23%
30. COc1cccc2sc(NC(=O)C(C)(C)C(c3ccccc3)c3ccccc3)nc12 [Example 46, 2,2-dimethyl-N-(4-(methyloxy)-1,3-benzothiazol-2-yl)-3,3-diphenylpropanamide]  22.9%
31. O=C(Nc1nccs1)C1(C(c2ccccc2)c2ccccc2)CCCC1 [Example 162, 1-(diphenylmethyl)-N-1,3-thiazol-2-ylcyclopentanecarboxamide]  22.8%
32. COc1ccc(C(c2ccccc2)C(C)(C)C(=O)Nc2nc(CCc3ccccc3)cs2)cc1 (stereo not shown) [Example 109, 2,2-dimethyl-3-(4-(methyloxy)phenyl)-3-phenyl-N-(4-(2-phenylethyl)-1,3-thiazol-2-yl)propanamide]  22.6%
33. COc1ccc(C(c2ccccc2)C(C)(C)C(=O)Nc2ncc(C)s2)cc1 (stereo not shown) [Example 105, 2,2-dimethyl-3-(4-(methyloxy)phenyl)-N-(5-methyl-1,3-thiazol-2-yl)-3-phenylpropanamide]  22.1%
34. CCOC(=O)c1sc(NC(=O)C(C)(C)C(c2ccccc2)c2ccc(OC)cc2)nc1C (stereo not shown) [Example 112, ethyl 2-((2,2-dimethyl-3-(4-(methyloxy)phenyl)-3-phenylpropanoyl)amino)-4-methyl-1,3-thiazole-5-carboxylate]  20.9%
35. CC(C)(C(=O)Nc1nccs1)C(c1ccc(O)cc1)c1ccc(O)cc1 [Example 186, 3,3-bis(4-hydroxyphenyl)-2,2-dimethyl-N-1,3-thiazol-2-ylpropanamide]  20.5%
36. CCOC(=O)/C(=N/OC)c1csc(NC(=O)C(C)(C)C(c2ccccc2)c2ccccc2)n1 [Example 49, ethyl (2E)-(2-((2,2-dimethyl-3,3-diphenylpropanoyl)amino)-1,3-thiazol-4-yl)((methyloxy)imino)ethanoate]  20.1%

Same assay, conditions: Homo sapiens, A549, Cellular Transrepression Assay

In order of falling EC50:
1. COc1ccc2c(-c3csc(NC(=O)C(C)(C)C(c4ccccc4)c4ccccc4)n3)cccc2c1 [Example 166, 2,2-dimethyl-N-(4-(6-(methyloxy)-1-naphthalenyl)-1,3-thiazol-2-yl)-3,3-diphenylpropanamide]  950 nM
2. Cc1ccc(-c2csc(NC(=O)C(C)(C)C(c3ccccc3)c3ccccc3)n2)c2ccccc12 [Example 164, 2,2-dimethyl-N-(4-(4-methyl-1-naphthalenyl)-1,3-thiazol-2-yl)-3,3-diphenylpropanamide]  810 nM
3. CC(C)(C(=O)Nc1nccs1)C(c1ccc(N2CCOCC2)cc1)c1cccc(F)c1 (single isomer, unassigned) [Example 253, 3-(3-fluorophenyl)-2,2-dimethyl-3-(4-(4-morpholinyl)phenyl)-N-1,3-thiazol-2-ylpropanamide]  37 nM
4. CC(C)(C(=O)Nc1nccs1)[C@H](c1ccccc1)c1ccc(N2CCOCC2)cc1 (stereo in doubt) [Example 258, 2,2-dimethyl-3-(4-(4-morpholinyl)phenyl)-3-phenyl-N-1,3-thiazol-2-ylpropanamide]  10.5 nM
5. COc1ccc([C@H](c2ccccc2)C(C)(C)C(=O)Nc2nc(Cc3ccc(-c4ccncc4)cc3)cs2)cc1 (stereo in doubt) [Example 291, 2,2-dimethyl-3-(4-(methyloxy)phenyl)-3-phenyl-N-(4-((4-(4-pyridinyl)phenyl)methyl)-1,3-thiazol-2-yl)propanamide]  10.3 nM
6. CC(C)(C(=O)Nc1nncs1)C(c1ccc(N2CCOCC2)cc1)c1cccc(F)c1 (single isomer, unassigned) [Example 255, 3-(3-fluroophenyl)-2,2-dimethyl-3-(4-(4-morpholinyl)phenyl)-N-1,3,4-thiadiazol-2-ylpropanamide]  10.2 nM
7. COc1ccc([C@@H](c2ccccc2)C(C)(C)C(=O)Nc2nc(Cc3ccc(-c4ccncc4)cc3)cs2)cc1 (stereo in doubt) [Example 290, 2,2-dimethyl-3-(4-(methyloxy)phenyl)-3-phenyl-N-(4-((4-(4-pyridinyl)phenyl)methyl)-1,3-thiazol-2-yl)propanamide]  9.65 nM
